According to patent US20250243218A1, “NOVEL CARBAMATE COMPOUND AND USE THEREOF” (CHENGDU SHIBEIKANG BIOMEDICAL TECHNOLOGY CO., LTD., priority 2022, published 2025):

Key:
[1] = Solubility study; type: physicochemical; conditions: 25° C. to 30° C.
Procedure: Samples of the example compound 2 and comparative example 2 (Vicagrel) were accurately weighed. Under the condition of 25° C. to 30° C., 1 ml of physiological saline and 1 ml of a buffer (pH 1.2) were taken, and added with 10 mg of each compound, respectively. The compound 2 of the present disclosure had excellent solubility, which can satisfy the demand for the formulation into an injection with an effective concentration in clinical, while the solubility of the comparative example 2 was extremely low and it cannot satisfy the demand for injection, and the addition of additional solubilizer may pose potential safety risks.

[2] = Influencing factor test (high temperature, high humidity, light); type: physicochemical
Procedure: Test Methods: The samples of the compound 2 and comparative example 2 (Vicagrel) were weighed and placed in weighing bottles, respectively, and the weighing bottles were placed under the conditions of high temperature (60° C.), high humidity (RH 80%), and light (5000 Lux), respectively.

[3] = system: rabbit blood cells; experiment: In vitro hemolysis test; type: cell-based; conditions: compound 2 injection, 2% red blood cell suspension
Procedure: One Adult Big White-Eared Rabbit (Male)
(1) After the rabbit was anesthetized by injection of sodium pentobarbital via the marginal ear vein at about 30 mg/kg, about 20 ml of blood was collected from the heart into an appropriate container.
(2) A stirrer (or glass bead) was placed in the container, the blood was stirred at a slow speed for a few minutes to remove the fibrinogen in the blood so as to obtain defibrinated blood.
(3) About 10 times the amount of physiological saline was added, mixed evenly by shaking and aliquoted into centrifuge tubes. The tubes were centrifuged at 1000 to 2000 rpm for 15 min (the rotational speed and time for centrifugation could be adjusted according to the post-centrifugation situation due to the difference of centrifuge tubes in size), and then the supernatants were removed.
(5) The obtained red blood cells were prepared into a 2% suspension with physiological saline.

[4] = system: ADP-induced platelet aggregation in rats; experiment: Antiplatelet aggregation effect: ADP-induced platelet aggregation in PRP of rats after iv administration; type: in vivo; conditions: single iv at the same molar dose, blood 3 h after administration, ADP final 20 μM
Source text: 1. Test objective: Evaluation and comparison of the antiplatelet aggregation treatment effect of each compound after administration at the same molar amount
70 rats were randomly and evenly grouped into 7 groups, i.e., solvent control group, comparative example 1 (2-Oxo-clopidogrel) group, comparative example 2 (Vicagrel) group, compound 1 group, compound 2 group, compound 7 group and compound 8 group.
Rats were anesthetized by intraperitoneal injection of 1.5% sodium pentobarbital.
The anesthetized animals were transferred to an operating platform.
The rats were injected with anesthetic, and fixed on the operating platform in a supine position after the whole body of the rat became soft. After routine disinfection, the abdomen of the rat was incised along the abdominal midline using surgical scissors to open the abdominal cavity. The adipose tissue around the blood vessels was gently separated with a small forceps, and the excess adipose tissue covering the blood vessels was then wiped and removed with the cotton ball to make the blood vessels clearly visible (the abdominal aorta is located anterior to the vertebral column, and the abdominal vein appears thicker and darker in color than the abdominal aorta). The blood vessel was first fixed to prevent it from moving as much as possible. The left thumb and index finger fixed the adipose tissue and other organs on both sides of the blood vessel, while the ring finger pressed on the blood vessel at the upper end of the needle insertion point to lower the blood pressure, which can prevent blood spurting. The puncture needle was held with the right hand, with the bevel of the needle tip facing downward. The needle was inserted at an angle of about 30 degrees and advanced towards the heart to a suitable depth of about 5 mm. Once the blood had started to enter the needle via its tip, the other end of the blood collection needle was inserted into the vacuum tube. After the insertion of needle, the needle tip could be clamped with a hemostatic clip to prevent it from puncturing the blood vessel if the rat struggled due to insufficient anesthesia.
Three hours after the administration, the rats were anesthetized with sodium pentobarbital. Then blood was collected from the abdominal aorta, added with 3.8% sodium citrate (1:9) as an anticoagulant, mixed evenly and centrifuged at 200 g for 10 min. The supernatant was harvested to obtain the platelet-rich plasma (PRP), and the residual plasma was then centrifuged at 1600 g for 15 min to obtain the resulting supernatant as platelet-poor plasma (PPP).
Platelet aggregation rate was measured using a platelet aggregometer (model: Agg RAM, Helena, USA). The PPPs corresponding to the PRPs to be tested in each channel were first used to correct the light transmission, and the PPPs were removed after the correction. A cuvette added with 225 μl of PRP to be tested was then placed in each channel, and added with a stirrer, then ADP (with a final concentration of 20 μM). The platelet aggregometer immediately began to measure the platelet aggregation rate.

[5] = Pharmacokinetic study in SD rats, 2-Oxo-clopidogrel in plasma by LC/MS/MS; type: in vivo; conditions: 2-Oxo-clopidogrel in plasma, SD rats, single dose at same molar amount (Table 3: iv.; text: gavage), n = 6, mean ± SD
Source text: After being administered via single gavage at the same molar amount, the pharmacokinetic characteristics of each compound were investigated, and the main pharmacokinetic parameters were compared.
Each test compound was accurately weighed separately into a clean drug container, dissolved with appropriate amount of Solutol, shaken by vortex, added with purified water, ultrasonicated, and shaken by vortex until the compound was completely dissolved. All the formulations were freshly prepared on the day of administration.
Thirty healthy adult SD rats were administered via gavage.
Grouping and Fasting: SD rats were randomly grouped, with 6 rats per group, and administered with the corresponding compounds via gavage according to Table 3.
Sample Collection and Processing: 0.2 ml of blood was collected at different time points of before (0 h) and 5 min, 15 min, 30 min, 1 h, 2 h, 4 h, 8 h, and 24 h after the administration. After the anticoagulation with EDTA-K2 was completed, the blood was centrifuged at 4° C. for 5 min, and then the plasma was separated and stored at −80° C. for later measurement.
Measurement: The blood drug concentration of 2-Oxo-clopidogrel in all PK plasma samples was measured by LC/MS/MS method, and the pharmacokinetic parameters of individual compounds were calculated by using software WinNonlin 7.2.

[6] = system: ear marginal vein of the rabbit; experiment: Vascular irritation assay; type: in vivo
Procedure: Four Japanese Big-Ear White Rabbit (about 2 kg), 2♀/2♂ (2 Female/2 Male)
The intra-individual left/right comparison method was used. The compound 2 low dose injection and compound 2 high dose injection groups were set, with 2 rabbits in each group, half male and half female. The compound 2 injections were administered by injection into the ear marginal veins of right ears of the rabbits in the compound 2 low and high dose groups, with administration doses of 2.5 mg/kg and 7.5 mg/kg, respectively, and with the same administration volume of 5 ml/kg; and the corresponding administration concentrations were 0.5 mg/ml and 1.5 mg/ml, respectively. The same administration volume of sodium chloride injection as the negative control was administered by injection into the ear marginal veins of left ears of the rabbits in the compound 2 low and high dose groups. The administration was carried out by intravenous infusion for 30 min. […] The administration was performed once daily for a total of 7 consecutive days.
At 72 h and at the end of a 14-day recovery period after the final administration, half of the animals in each group […] were sacrificed, respectively. Marginal ear tissue samples were cut from the injection site and the proximal end of the marginal ear vein respectively and collected. The injection sites were observed by naked eyes for the response conditions to irritation. The obtained tissues were fixed with 10% neutral formalin and conventionally sectioned for histopathological examination.

[7] = target: T1, hERG potassium channel (Homo sapiens, UniProt Q12809); experiment: cell-based; conditions: manual patch-clamp, stably overexpressed hERG channel; read-out: IC50 (μM), inhibition of cardiac hERG potassium channel
T1 construct: expressed in transfected cells
Source text: Test Example 2: Effect of Compounds on Current in Stably Overexpressed hERG Channel

T1 sequence (Q12809 whole entry): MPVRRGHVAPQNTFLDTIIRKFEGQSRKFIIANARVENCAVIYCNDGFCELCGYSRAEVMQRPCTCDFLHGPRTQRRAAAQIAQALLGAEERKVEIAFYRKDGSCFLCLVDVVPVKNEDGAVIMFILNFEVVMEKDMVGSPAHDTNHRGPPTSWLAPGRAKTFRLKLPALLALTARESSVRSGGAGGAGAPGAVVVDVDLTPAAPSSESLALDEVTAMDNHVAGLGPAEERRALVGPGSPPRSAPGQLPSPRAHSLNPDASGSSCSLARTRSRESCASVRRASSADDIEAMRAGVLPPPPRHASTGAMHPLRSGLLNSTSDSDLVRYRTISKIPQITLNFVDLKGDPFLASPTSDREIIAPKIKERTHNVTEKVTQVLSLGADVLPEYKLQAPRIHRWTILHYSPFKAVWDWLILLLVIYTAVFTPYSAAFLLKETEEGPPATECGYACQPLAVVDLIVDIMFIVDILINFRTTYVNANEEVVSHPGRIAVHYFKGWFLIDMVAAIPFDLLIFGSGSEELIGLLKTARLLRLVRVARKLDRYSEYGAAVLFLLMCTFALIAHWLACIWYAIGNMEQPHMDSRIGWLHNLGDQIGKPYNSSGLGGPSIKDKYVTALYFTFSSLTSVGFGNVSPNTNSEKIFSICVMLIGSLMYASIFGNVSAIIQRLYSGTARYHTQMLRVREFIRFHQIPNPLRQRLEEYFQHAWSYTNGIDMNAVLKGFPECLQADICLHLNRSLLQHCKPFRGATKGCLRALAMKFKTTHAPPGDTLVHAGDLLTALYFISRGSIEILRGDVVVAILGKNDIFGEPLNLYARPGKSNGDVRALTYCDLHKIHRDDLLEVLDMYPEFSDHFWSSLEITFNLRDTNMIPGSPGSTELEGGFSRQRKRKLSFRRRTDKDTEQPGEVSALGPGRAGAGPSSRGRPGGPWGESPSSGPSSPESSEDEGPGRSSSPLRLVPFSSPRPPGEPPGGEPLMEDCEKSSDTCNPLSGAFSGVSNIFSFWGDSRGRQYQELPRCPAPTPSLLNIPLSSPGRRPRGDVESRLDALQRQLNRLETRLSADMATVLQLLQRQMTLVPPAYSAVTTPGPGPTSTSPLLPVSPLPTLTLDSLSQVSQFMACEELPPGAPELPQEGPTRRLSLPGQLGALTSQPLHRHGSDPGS

In the case of `COC(=O)[C@H](c1ccccc1Cl)N1CCc2sc(OC(=O)N3CCN(C)CC3)cc2C1.O=C(O)/C=C/C(=O)O` [Compound 2, (S)-5-(1-(2-chlorophenyl)-2-methoxy-2-oxyethyl)-4,5,6,7-tetrahydrothieno[3,2-c]pyridin-2-yl 4-methylpiperazine-1-carboxylate fumarate], the “Solubility, pH 1.2 buffer” value ([1]; 10 mg compound added to 1 ml buffer (pH 1.2)) is reported as >10 mg, the “Solubility, Physiological saline(1 ml)” value ([1]; 10 mg compound added to 1 ml physiological saline) is reported as >10 mg and the “change in content, appearance and shape” value ([2]; 10 days under each of high temperature, high humidity and light) is reported as “little change in content and no obvious change in appearance and shape”. For the same compound, the “content, Day 0” value ([2]; Day 0) was 98.39%, the “content, High humidity (Day 10)” value ([2]; high humidity (RH 80%), 10 days) was 97.83% and the “content, High temperature (Day 10)” value ([2]; high temperature (60° C.), 10 days) was 97.84%. For the same compound, the “content, Light (Day 10)” value ([2]; light (5000 Lux), 10 days) was 96.09%, the “hemolysis of rabbit blood cells” value ([3]; high concentration 2.5 mg/ml) was “neither the compound 2 injection at low concentration (0.5 mg/ml) nor the compound 2 injection at high concentration (2.5 mg/ml) caused hemolysis” and the “hemolysis of rabbit blood cells” value ([3]; low concentration 0.5 mg/ml) was “neither the compound 2 injection at low concentration (0.5 mg/ml) nor the compound 2 injection at high concentration (2.5 mg/ml) caused hemolysis”. The “Platelet aggregation rate (%)” value ([4]; solvent control 76.06 ± 3.29) was 21.18 ± 8.51 %, the “Platelet aggregation rate (%)” value ([4]; solvent control 76.06 ± 3.29, listed as compound 2) was 21.18±8.51% and the “AUC0-last (h*ng/ml)” value [5] was 110.15 ± 32.62** h*ng/ml. The “Cmax” value [5] was 76.82 ± 21.69 ng/mL, the “T1/2” value [5] was 1.98 ± 0.25 h and the “Tmax” value [5] was 0.45 ± 0.13 h. For the same compound, the “vascular irritation effect on the ear marginal vein of the rabbit (overall determination)” value ([6]; high concentration 1.5 mg/ml) was “no vascular irritation effect”, the “observation of ear marginal vein on the administered side at day 2 of the recovery period” value ([6]; high concentration 1.5 mg/ml, naked eyes) was “congestion of the ear marginal vein on the administered side was observed by naked eyes” and the “vascular irritation effect on the ear marginal vein of the rabbit (overall)” value ([6]; low concentration 0.5 mg/ml, observed by naked eyes) was “no vascular irritation effect”. For the same compound, the IC50 [7] was 18.6 µM.
